Values quoted from earlier work, collected in US8007820B2, “Wide spectrum insecticide and miticide composition” (W. Neudorff GmbH KG, priority 2005, dated 2011).

Conditions: as formulated material

Spinosad
shelf life: about three
